# Laboratory results published in US20030198617A1, “Pharmaceutical tryptophan containing dipeptide compositions and methods of use thereof” (priority 1993, published 2003).
# Read-outs that look alike come from different tables or passages of the source. Marks after values point to notes of the source that are not given here.
# Legend:
# [1] = Pediatric purulent maxillary sinusitis, local IM862; assay type: in vivo, human; conditions: for B-lymphocytes % / B-lymphocytes abs. / Immune complexes / Leukocytes, abs / Lymphocytes % / Lymphocytes, abs / O-lymphocytes % / O-lymphocytes abs. / T-lymphocytes % / T-lymphocytes abs. / Lysozyme: after treatment c IM862
# ARD and influenza = assay type: in vivo, human
# [2] = Immune system of guinea pigs after radiation exposure (thymus, lymph node, spleen, blood); assay type: in vivo
# Description: Seventy-two of the animals were irradiated with total radiation dose was 1 Gr. […] The selected doses were optimal in stimulating an immune response to ram erythrocytes. Control irradiated and non-irradiated animals (24 guinea pigs to each group) were given saline solution per an analogous schedule. At 5, 10, and 20 days after irradiation the animals were destroyed (8 guinea pigs from each group). The thymus, spleen, and lymph nodes of each animal were extracted and their weight coefficients computed. The number of karyocytes, T-, B-, and O-lymphocytes in each organ was determined. Also, the functional activity of blood lymphocytes in the leukocyte migration inhibition reaction to Con A was assessed and the content of cation proteins in the neutrophils was determined.
# skin grafts = experiment: Skin allograft survival in mice; assay type: in vivo
# [3] = Radiation immunodeficiency correction two months after irradiation (Chernobyl), blood parameters; assay type: in vivo, human; conditions: after IM862 therapy
# Procedure: These patients were treated for 2 months immediately succeeding exposure to radiation caused from the Chernobyl nuclear accident. As a control, about 19 people exposed to radiation were tested for various blood parameters to establish a baseline.
# corneal epithelium = experiment: Corneal epithelium restoration (experimental data); assay type: in vivo; conditions: IM862 IM, intranasally or ocular installation
# [4] = acute purulent maxillary sinusitis
# [5] = chronic purulent maxillary sinusitis and Highmore ethmoiditis
# [6] = second group, after IM862 treatment
# [7] = 20 days after irradiation, IM862 0.01 mg/kg daily for 5 days
substance,measurement,setting,value
Glu-Trp [IM862],B-lymphocytes %,[1]; [4],21.9 ± 2.1%
same,B-lymphocytes abs.,[1]; [4],778.0 ± 89.9
same,Immune complexes,[1]; [4],113.3 ± 15.3
same,"Leukocytes, abs",[1]; [4],7200.0 ± 234.5
same,Lymphocytes %,[1]; [4],44.7 ± 1.7%
same,"Lymphocytes, abs",[1]; [4],3281.3 ± 235.0
same,O-lymphocytes %,[1]; [4],34.3 ± 2.4%
same,O-lymphocytes abs.,[1]; [4],1082.0 ± 21.0
same,T-lymphocytes %,[1]; [4],41.8 ± 1.2%
same,T-lymphocytes abs.,[1]; [4],1420.3 ± 131.6
same,Lysozyme,"[1]; acute purulent maxillary sinusitis, outwash from sinuses",45.0 ± 5.9
same,B-lymphocytes %,[1]; [5],20.7 ± 0.7%
same,B-lymphocytes abs.,[1]; [5],562.0 ± 38.1
same,Immune complexes,[1]; [5],90.8 ± 10.0
same,"Leukocytes, abs",[1]; [5],6650.0 ± 262.2
same,Lymphocytes %,[1]; [5],41.5 ± 2.6%
same,"Lymphocytes, abs",[1]; [5],2761.8 ± 212.6
same,Lysozyme,[1]; [5],52.4 ± 4.1
same,O-lymphocytes %,[1]; [5],37.4 ± 1.9%
same,O-lymphocytes abs.,[1]; [5],1052.5 ± 109.3
same,T-lymphocytes %,[1]; [5],41.8 ± 1.0%
same,T-lymphocytes abs.,[1]; [5],1109.8 ± 74.1
same,time until improvement was noted,[1]; first group,2 to 3 days
same,average hospital stay,[1]; first group (acute and subacute),9.2 days
same,quantity of crystallization centers in irrigated fluid,"[1]; first group, end of treatment",30-50
same,"cessation of exudation, number of patients","[1]; first group, in 7-9 days of treatment",3 patients
same,"cessation of exudation, number of patients","[1]; first group, on the 6th day of treatment",5 patients
same,"nasal breathing and general sense of wellness normalized, number of patients",[1]; second group,38 patients
same,average hospital stay,[1]; second group (chronic),8 days
same,"immunoglobulin M remained elevated, number of patients",[1]; [6],24 patients
same,"serum immunoglobulin A normalized, number of patients",[1]; [6],10 patients
same,"serum immunoglobulin G normalized, number of patients",[1]; [6],6 patients
same,increase in exudation from the affected sinuses,"[1]; second group, at 3-4 days of treatment vs second 24-hour period",10-15%
same,quantity of crystallization centers in irrigated fluid,"[1]; second group, control crystallograms",50-60
same,"disappearance of edema of the nasal mucosa, number of patients","[1]; second group, following 4-5 days of treatment",32 patients
same,"exudate attained a mucous character, number of patients","[1]; second group, in 3-4 days",27 patients
same,"cessation of exudation, number of patients","[1]; second group, in 4-6 days",18 patients
same,"exudate attained a mucous character, number of patients","[1]; second group, in 5-6 days",13 patients
same,"cessation of exudation, number of patients","[1]; second group, in 7-9 days",20 patients
same,"exudate attained a mucous character, number of patients","[1]; second group, in 7-9 days",two
same,"cessation of exudation, number of patients","[1]; second group, in 10-14 days",4 patients
same,therapeutic action during localized use,[1]; various forms of paranasal sinusitis,"normalization of nasal breathing, decrease in nasal cavity mucosal edema, cessation of exudation from the involved sinuses"
same,Average term of hospitalization,ARD and influenza; 1st month,6.2 days
same,"Need in hospitalization, %",ARD and influenza; 1st month,27.0%
same,Number of temporary disablement cases/100 persons/month,ARD and influenza; 1st month,3.8 cases/100 persons/month
same,Number of temporary disablement days/100 persons/month,ARD and influenza; 1st month,24.0 days/100 persons/month
same,Sickness rate/100 persons/month,ARD and influenza; 1st month,9.6 /100 persons/month
same,Average term of hospitalization,ARD and influenza; 2nd month,6.2 days
same,"Need in hospitalization, %",ARD and influenza; 2nd month,27.1%
same,Number of temporary disablement cases/100 persons/month,ARD and influenza; 2nd month,7.3 cases/100 persons/month
same,Number of temporary disablement days/100 persons/month,ARD and influenza; 2nd month,48.6 days/100 persons/month
same,Sickness rate/100 persons/month,ARD and influenza; 2nd month,11.3 /100 persons/month
same,Average term of hospitalization,ARD and influenza; 3rd month,6.2 days
same,"Need in hospitalization, %",ARD and influenza; 3rd month,28.3%
same,Number of temporary disablement cases/100 persons/month,ARD and influenza; 3rd month,3.4 cases/100 persons/month
same,Number of temporary disablement days/100 persons/month,ARD and influenza; 3rd month,14.3 days/100 persons/month
same,Sickness rate/100 persons/month,ARD and influenza; 3rd month,9.4 /100 persons/month
same,Average term of hospitalization,ARD and influenza; 4th month,7.0 days
same,"Need in hospitalization, %",ARD and influenza; 4th month,28.3%
same,Number of temporary disablement cases/100 persons/month,ARD and influenza; 4th month,3.6 cases/100 persons/month
same,Number of temporary disablement days/100 persons/month,ARD and influenza; 4th month,26.3 days/100 persons/month
same,Sickness rate/100 persons/month,ARD and influenza; 4th month,11.0 /100 persons/month
same,Average term of hospitalization,ARD and influenza; IM862 group,6.2 days
same,Need in hospitalization,ARD and influenza; IM862 group,30.6
same,Number of temporary disablement cases/100 persons/month,ARD and influenza; IM862 group,4.1 cases/100 persons/month
same,Number of temporary disablement days/100 persons/month,ARD and influenza; IM862 group,26.5 days/100 persons/month
same,Pneumonia rate/100 persons/month,ARD and influenza; IM862 group,0.20 /100 persons/month
same,"Rate of lingering and complicated cases, %",ARD and influenza; IM862 group,3.9%
same,Sickness rate per 100 persons/month,ARD and influenza; IM862 group,9.8 per 100 persons/month
same,"The same index in-patients, %","ARD and influenza; IM862 group, lingering and complicated cases",9.8%
same,Index of efficiency: Average term of hospitalization,ARD and influenza; IM862 vs control,1.4
same,Index of efficiency: Need in hospitalization,ARD and influenza; IM862 vs control,1.7
same,Index of efficiency: Pneumonia rate,ARD and influenza; IM862 vs control,2.5
same,Index of efficiency: Rate of lingering and complicated cases,ARD and influenza; IM862 vs control,3.5
same,Index of efficiency: Sickness rate,ARD and influenza; IM862 vs control,3.1
same,Index of efficiency: The same index in-patients,ARD and influenza; IM862 vs control,2.7
same,Index of efficiency: temporary disablement cases,ARD and influenza; IM862 vs control,1.7
same,Index of efficiency: temporary disablement days,ARD and influenza; IM862 vs control,2.2
same,cation protein count in the blood neutrophils,[2]; 10 and 20 days after irradiation,normalized at 10 and 20 days after irradiation
same,Lymph Node: B-lymphocytes %,[2]; [7],3.5 ± 0.6^x %
same,Lymph Node: B-lymphocytes ×10^3/mg,[2]; [7],9.2 ± 0.9^x ×10^3/mg
same,Lymph Node: Lymphocytes ×10^3/mg,[2]; [7],242.5 ± 31.3^xx ×10^3/mg
same,Lymph Node: O-lymphocytes %,[2]; [7],84.4 ± 12.3%
same,Lymph Node: O-lymphocytes ×10^3/mg,[2]; [7],204.6 ± 33.4^xx ×10^3/mg
same,Lymph Node: T-lymphocytes %,[2]; [7],12.3 ± 0.9%
same,Lymph Node: T-lymphocytes ×10^3/mg,[2]; [7],29.9 ± 2.2^xx ×10^3/mg
same,Lymph Node: Weight coefficient,[2]; [7],0.31 ± 0.03 g/kg
same,Lymph Node: “Active” T-lymphocytes %,[2]; [7],10.3 ± 1.4%
same,Lymph Node: “Active” T-lymphocytes ×10^3/mg,[2]; [7],24.9 ± 3.7^xx ×10^3/mg
same,Splenic: B-lymphocytes %,[2]; [7],27.1 ± 2.6%
same,Splenic: B-lymphocytes ×10^3/mg,[2]; [7],81.6 ± 9.3 ×10^3/mg
same,Splenic: Lymphocytes ×10^3/mg,[2]; [7],260.4 ± 32.3^xx ×10^3/mg
same,Splenic: O-lymphocytes %,[2]; [7],57.4 ± 6.7%
same,Splenic: O-lymphocytes ×10^3/mg,[2]; [7],149.4 ± 15.9^x ×10^3/mg
same,Splenic: T-lymphocytes %,[2]; [7],17.4 ± 1.2%
same,Splenic: T-lymphocytes ×10^3/mg,[2]; [7],45.4 ± 4.1^xx ×10^3/mg
same,Splenic: Weight coefficient,[2]; [7],1.26 ± 0.9 g/kg
same,Splenic: “Active” T-lymphocytes %,[2]; [7],11.1 ± 2.0%
same,Splenic: “Active” T-lymphocytes ×10^3/mg,[2]; [7],28.9 ± 3.9^xx ×10^3/mg
same,Thymic: B-lymphocytes %,[2]; [7],0.9 ± 0.08^xx %
same,Thymic: B-lymphocytes ×10^3/mg,[2]; [7],3.7 ± 0.4 ×10^3/mg
same,Thymic: Lymphocytes ×10^3/mg,[2]; [7],423.3 ± 40.4^xx ×10^3/mg
same,Thymic: O-lymphocytes %,[2]; [7],17.9 ± 0.8%
same,Thymic: O-lymphocytes ×10^3/mg,[2]; [7],75.4 ± 8.6^xx ×10^3/mg
same,Thymic: T-lymphocytes %,[2]; [7],81.3 ± 9.3%
same,Thymic: T-lymphocytes ×10^3/mg,[2]; [7],342.8 ± 30.4^xx ×10^3/mg
same,Thymic: Weight coefficient g/kg,[2]; [7],0.81 ± 0.8^xx g/kg
same,Thymic: “Active” T-lymphocytes %,[2]; [7],57.6 ± 6.2^xx %
same,Thymic: “Active” T-lymphocytes ×10^3/mg,[2]; [7],242.6 ± 26.8^xx ×10^3/mg
same,"percent of leukocyte migration (blood lymphocytes, Con A)","[2]; irradiated guinea pigs, 5 and 20 days after irradiation",normalized this index by 20 days after radiation exposure
same,GRAFT REJECTION TIME,"skin grafts; mice, daily for 5 treatments prior to grafting, IM862 0.01 mg/kg, Thymalin 1.0 mg/kg",8.3 ± 0.4 days
same,graft survival,skin grafts; vs animals not receiving Glu-Trp,prolonged survival
same,"CD2, %",[3],48.7 ± 1.8 %
same,"CD2, abs",[3],1.13 ± 0.08** 10^9/l
same,"CD2-DR+, %",[3],30.0 ± 1.2 %
same,"CD2-DR+, abs",[3],0.55 ± 0.06* 10^9/l
same,"CD19, %",[3],27 ± 4%
same,"CD19, abs",[3],0.51 ± 0.10** 10^9/l
same,"E-RFC, %",[3],27.4 ± 2.4 %
same,IgA,[3],1.49 ± 0.19 g/L
same,IgG,[3],10.0 ± 1.0 g/L
same,IgM,[3],1.00 ± 0.10 g/L
same,"LMI with ConA, %",[3],90 ± 10 %
same,"Leukocytes, abs",[3],5.0 ± 1.2** 10^9/l
same,"Lymphocytes, 2abs",[3],1.9 ± 0.4* 10^9/l
same,corneal epithelium,corneal epithelium,restoration and regeneration of corneal epithelium
